The subject of assay [1] is peptide-sensitized autologous PHA blasts.
Assay [2] has as its system peptide-sensitized HLA-matched PHA blasts. It is filed as cell-based, human.
Assay [3] relates to gp350- and gp85-specific CTL response. Conditions: mouse, in vivo, sc.
In assay [4] the target is T1, HLA A2 on T2 cells (Homo sapiens, UniProt P04439, D140Y/D185E/D98H/E176V/E277Q/G131W/G231S/I119V/I121R/I166T/I218V/L300P/L318F/N151K/N90K/P208A/P217A/Q86G/Q94H/R138H/R169H/T345S).
T1 construct: using HLA A2-positive T2 cells; endogenous in cells; host or cells: T2 (174xCEM.T2), TAP-negative B x T hybrid cell line
As to the kind of experiment: MHC stabilisation assay on T2 cells (HLA A2 expression by FACS). The assay is classed as cell-based. Conditions: peptide 200 μg/ml, 26° C. 14-16h then 37° C. 2-3h. The protocol:
FIG. 1:MHC stablization analysis on T2 cells using potential HLA A2 binding peptides within LMP1. T2 cells were initially incubated with 200 μl of each of the peptides (200 μg/ml) for 14-16h at 26° C. followed by incubation at 37° C. for 2-3h. HLA A2 expression on these cells was analysed by FACS using the BB7.2 antibody. The dotted line indicates the background mean fluorescence intensity for HIA A2 on T2 cells without any peptide. The LMP1 peptides showing significant stablization of HLA A2 molecules on T2 cells are indicated by arrows.
FIG. 6:Effect of variant LMP1 peptides on the HLA A2 binding (panel A) and CTL recognition (panel B). For HLA A2 binding analysis on T2 cells were initially incubated with 200 μl of each of the peptides (200 μg/ml) for 14-16h at 26° C. followed by incubation at 37° C. for 2-3h. HLA A2 expression on these cells was analysed by FACS using BB7.2 antibody (panel A). The dotted line indicates the background mean fluorescence intensity for HLA A2 on T2 cells without any peptide. […] Results are expressed as percent specific lysis. […]
FIG. 8:MHC stabilization analysis on T2 cells using potential HLA A2 binding peptides within gp85 (panel A) and gp350 (panel B). […] HLA A2 expression on these cells was analysed by FACS using the BB7.2 antibody. The dotted line indicates the background mean fluorescence intensity for HLA A2 on T2 cells without any peptide. […]
For orientation: In flow cytometry, cells or beads pass a laser one at a time.

In assay [5] the test system is CTL clone SB7. The assay is described as follows: LMP1-specific CTL clone SB7, peptide recognition / 51Cr-release assay. The assay is classed as cell-based, human. As to conditions: donor; for recognition of peptide by CTL clone SB7: effector:target 4:1.
Assay [6] has as its system peptide-sensitized autologous PHA blasts. As to the kind of experiment: Polyclonal CTLs stimulated with LMP1 peptides, 51Cr-release assay. The assay is classed as cell-based, human. Conditions: HLA A2-positive donor; effector:target 20:1; targets 1 μg/ml peptide.
The subject of assay [7] is EBV-positive lymphomas. Conditions: cited from earlier work.

Entries after “also recorded” stand apart in the source; their conditions may differ. Read-outs that look alike come from different tables or passages of the source.

With LMIIPLINV [gp85 residues 542-550], the “reactivity of polyclonal CTL effectors against peptide-sensitized PHA blasts” value (“reactivity of polyclonal CTL effectors” below) in assay [1] is recorded as “recognized”. Moreover, the “ex vivo CTL recognition of peptide-sensitized targets” value (shortened to “ex vivo CTL recognition”) in assay [2] is “recognised”.
Take SLVIVTTFV: the “reactivity of polyclonal CTL effectors” value in assay [1] is “strong reactivity”. The “ex vivo CTL recognition” value in assay [2] is recorded as “strong reactivity”. In assay [3], the “CTL response in splenocytes” value is listed as “induced strong CTL response” and the “lysis of targets by CTLs activated from splenocytes of immunized mice” value (from here on “lysis of targets by CTLs activated”) was “variable in vitro CTL lysis”.
TLFIGSHVV: the “reactivity of polyclonal CTL effectors” value in assay [1] is “recognized”. Further, in assay [2], the “ex vivo CTL response during acute infection” value is “not detectable”. Further, in assay [3], the “CTL response in splenocytes” value is given as “induced strong CTL response” and the “lysis of targets by CTLs activated” value was “consistently showed strong lysis”.
With VLQWASLAV, the “reactivity of polyclonal CTL effectors” value in assay [1] is “strong reactivity”. The “ex vivo CTL recognition” value in assay [2] was “strong reactivity; also recorded: recognised”. Besides, in assay [3], the “CTL response in splenocytes” value is on record as “induced strong CTL response” and the “lysis of targets by CTLs activated” value is reported as “variable in vitro CTL lysis”.
For YFLEILWGL, the “expression of HLA A2 on T2 cells” value in assay [4] is “significantly increased”. Also, the “recognition of peptide by CTL clone SB7” value in assay [5] is “no CTL activity”.
For the molecule YLLEILWRL (Epstein Barr Virus), in assay [4], the “expression of HLA A2 on T2 cells” value is listed as “significantly increased”. In assay [5], the “recognition of peptide by CTL clone SB7” value is “efficiently recognized”.
For “YLQQNWWTL (Epstein Barr Virus) [LMP1 residues 159-167]”, the “activation of polyclonal CTLs (specific lysis)” value in assay [6] is given as “significant activation of polyclonal CTLs; also recorded: weaker response”. In addition, in assay [2] (all three IM patients, peptide 1 μg/ml), the “ex vivo CTL recognition” value is reported as “clear recognition”. The “isolation of peptide-specific CTL clones” value in assay [5] was “No CTL clones specific”.

B1: gp350: highly purified EBV structural glycoprotein gp350, subunit preparation (recombinant and affinity purified) (protein, UniProt P03200 1-907, looked up)
Envelope glycoprotein GP350: MEAALLVCQYTIQSLIHLTGEDPGFFNVEIPEFPFYPTCNVCTADVNVTINFDVGGKKHQLDLDFGQLTPHTKAVYQPRGAFGGSENATNLFLLELLGAGELALTMRSKKLPINVTTGEEQQVSLESVDVYFQDVFGTMWCHHAEMQNPVYLIPETVPYIKWDNCNSTNITAVVRAQGLDVTLPLSLPTSAQDSNFSVKTEMLGNEIDIECIMEDGEISQVLPGDNKFNITCSGYESHVPSGGILTSTSPVATPIPGTGYAYSLRLTPRPVSRFLGNNSILYVFYSGNGPKASGGDYCIQSNIVFSDEIPASQDMPTNTTDITYVGDNATYSVPMVTSEDANSPNVTVTAFWAWPNNTETDFKCKWTLTSGTPSGCENISGAFASNRTFDITVSGLGTAPKTLIITRTATNATTTTHKVIFSKAPESTTTSPTLNTTGFADPNTTTGLPSSTHVPTNLTAPASTGPTVSTADVTSPTPAGTTSGASPVTPSPSPWDNGTESKAPDMTSSTSPVTTPTPNATSPTPAVTTPTPNATSPTPAVTTPTPNATSPTLGKTSPTSAVTTPTPNATSPTLGKTSPTSAVTTPTPNATSPTLGKTSPTSAVTTPTPNATGPTVGETSPQANATNHTLGGTSPTPVVTSQPKNATSAVTTGQHNITSSSTSSMSLRPSSNPETLSPSTSDNSTSHMPLLTSAHPTGGENITQVTPASISTHHVSTSSPAPRPGTTSQASGPGNSSTSTKPGEVNVTKGTPPQNATSPQAPSGQKTAVPTVTSTGGKANSTTGGKHTTGHGARTSTEPTTDYGGDSTTPRPRYNATTYLPPSTSSKLRPRWTFTSPPVTTAQATVPVPPTSQPRFSNLSMLVLQWASLAVLTLLLLLVMADCAFRRNLSTSHTYTTPPYDDAETYV
On to B1, for which the “tumor formation / tumor outgrowth” value in assay [7] (cotton-top tamarins) is recorded as “inhibited tumor formation”. For the same molecule, the serum neutralizing antibodies result in assay [7] (subcutaneously with adjuvants (muramyl dipeptide or ISCOMs)) is “induced high levels of serum neutralizing antibodies”.

The values above are taken from patent US6723695B1, “CTL epitopes from EBV” (priority 1997, dated 2004).
